Measurements: PubChem BioAssay AID504672 (Sanford-Burnham Center for Chemical Genomics, 2011)
The source made the active and inactive calls. Rule as the data show it: active = IC50 below about 71 µM; inactive = the rest.

Tested on: S. cerevisiae tim10 strain, luminescence counterscreen
Test: signal inhibition in TIM10 yeast counter-screen, dose response, counter-screen for tim23-1 inhibitor project, luminescence, S. cerevisiae, uHTS hits (AID 504672);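 also: yeast grew roughly 22 hours at 25 °C before the luminescence read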

SMILES | IC50
O=C(Nc1nsc(-c2ccccc2)n1)c1cccs1 | 6.65 µM
O=C(c1cc(-c2ccc(O)cc2)on1)N1CCc2ccccc2C1 | 17.1 µM
CC[C@@]1(c2ccccc2OC)ON(c2ccccc2C(F)(F)F)C1=O | 4.27 µM
Oc1ccccc1C1NN=C(c2ccccc2)S1 (configuration not stated) | > 100 µM (inactive)
COc1ccc(NC(=O)Nc2nc3c(s2)CCCC3)cc1 | 14.5 µM
Cn1c(C(=O)Nc2ccc3c(c2)OCCO3)cc2sccc21 | 7.59 µM
COc1ccc(C(=O)c2sc(Nc3ccccc3F)nc2N)cc1 | 16.5 µM
O=C(/C=C\Nc1cccc(F)c1)c1cccs1 | 16.6 µM
COc1cc(NC(=O)c2cccs2)ccc1NC(=O)c1ccccc1Cl | 16.2 µM
O=C(CSc1cccc[n+]1[O-])Nc1ccccc1Oc1ccccc1 | 17.7 µM
O=C(NC(=O)c1ccccc1F)OCc1ccc(Cl)cc1Cl | 15 µM
O=C(CC(=O)c1cc(Cl)ccc1O)c1ccccc1 | 11.1 µM
C/C=C/c1ccc(OCCOc2cc(C=O)ccc2OC)c(OC)c1 | 16.8 µM
C[C@@]12C(=O)Nc3ccc(Cl)cc3C(=O)N1[C@H]1c3ccccc3OC[C@@H]1[C@@H]2c1ccccc1 | 3.46 µM
COc1ccc(S(=O)(=O)CC(=O)c2cc3cccc(C)c3oc2=O)cc1 | 15.4 µM
COc1ccc(/C=C/C(=O)Nc2ccc3c(c2)CCC3)cc1OC | 64.1 µM
O=C(N/N=C/c1ccc([N+](=O)[O-])s1)c1ccncc1 | 12.7 µM
COc1cccc(NC(=O)c2ccccc2)c1 | 3.42 µM
N#Cc1c(-c2ccccc2)cc(-c2ccc(O)cc2)nc1N | 9.91 µM
O=C(CSc1ccccc1)N/N=C/c1ccccc1O | 10.9 µM
CC1CCN(c2ccc(-c3cccs3)nn2)CC1 | 8.39 µM

SMILES | IC50
Cc1ccc(Nc2nc(-c3cccnc3)nc3ccccc23)cc1 | 65.8 µM
Cc1ccn2cc(C(=O)Nc3ccc4c(c3)OCCO4)nc2c1 | > 100 µM (inactive)
CC(C)CCN1C(=O)c2cccc3c(N)ccc(c23)C1=O | 10.6 µM
O=C(Oc1cccc2c(O)cccc12)c1ccccc1 | 4.84 µM
O=C(Nc1ccc(F)c(Cl)c1)c1ccccc1 | 5.55 µM
COc1ccc(C(C[N+](=O)[O-])c2c(-c3ccccc3)cc3ccccn23)cc1 (configuration not stated) | 9.28 µM
O=C(NCc1ccc2c(c1)OCO2)c1c(O)nc2sccn2c1=O | 1.63 µM
Cc1nc(-c2ccc(NC(=O)c3ccccc3)cc2)cs1 | 8.18 µM
c1ccc2[nH]c(-c3ccc4c(c3)OCO4)nc2c1 | 12.4 µM
Cc1ccc2[nH]cc(C(=O)CCl)c2c1 | 26.1 µM
Oc1ccc(Oc2ccc(Oc3ccc(O)cc3)cc2)cc1 | 30.4 µM
CNC(=S)N/N=C/c1cc(Br)cc(Br)c1O | 8.2 µM
Cc1ccc2nc(N3CCN(C=O)CC3)nc(-c3ccccc3)c2c1 | 9.88 µM
O=C(Nc1ccc(C(=O)N2CCCc3ccccc32)cc1)c1cccs1 | 15.2 µM
Cc1ccc(S(=O)(=O)Oc2ccccc2C=C2C(=O)N(C)C(=O)N(C)C2=O)cc1 | 4.57 µM
CC1(C)c2cc(Cl)ccc2-n2c1cc(O)c(-c1ccccc1)c2=O | 11.5 µM
COc1ccc(-c2cc(-c3ccccc3O)[nH]n2)cc1 | 12.4 µM
COc1cc2c(cc1OC)/C(=C/c1ccc(Cl)cc1)C(=O)OC2 | 50.9 µM
CC(C)n1cc(NC(=O)c2cc(-c3ccccc3)on2)cn1 | 14.3 µM
O=C(N/N=C/c1ccco1)c1cc2ccccc2o1 | 22.2 µM
CCOC(=O)c1c(C)oc2c(F)c(F)c(F)c(F)c2c1=O | 26.8 µM

SMILES | IC50
O=C(Nc1ccc(Oc2cccc3ccccc23)cc1)c1ccco1 | 8.83 µM
O=C(Nc1cccc(NC(=O)c2cccs2)c1)c1ccc(Br)o1 | 15 µM
O=C1Nc2ccccc2/C1=C/c1ccccc1Cl | 8.06 µM
Cc1nn(CC(=O)Nc2nc3ccccc3s2)c(C)c1[N+](=O)[O-] | 18.4 µM
COc1ccc(-c2ccc(NC(=O)c3ccco3)cc2)nn1 | 10.5 µM
Oc1ccc(Br)cc1/C=N/Nc1ccccn1 | 5.94 µM
CCCN(C(=O)c1ccc([N+](=O)[O-])c(C)c1)c1c(N)n(Cc2ccccc2)c(=O)[nH]c1=O | > 100 µM (inactive)
O=c1c2ccccc2[nH]c(=S)n1CCN1CCC(=C(c2ccc(F)cc2)c2ccc(F)cc2)CC1 | 12.7 µM
O=Cc1ccccc1OCc1ccc2c(c1)OCO2 | 5.65 µM
O=C(Nc1ncc([N+](=O)[O-])s1)c1ccc2c(c1)OCO2 | 15.8 µM
c1ccc(-c2cc3ccccc3cn2)cc1 | 7.8 µM
CN1CCc2nc3sc(C(=O)C45CC6CC(CC(C6)C4)C5)c(N)c3cc2C1 | 86.3 µM
Cc1ccc2occ(C(=O)c3ccco3)c(=O)c2c1 | 9.21 µM
Cc1cc(=O)oc2c1c(C(F)(F)F)nn2-c1ccccc1 | 6.41 µM
N#C/C(=C\c1ccc(OCc2ccccc2)cc1)C(N)=O | 27.9 µM
Oc1ccc2ccccc2c1/C=N/c1nccs1 | 8.43 µM
Cc1cnc(NC(=O)c2sc(Nc3ccccc3)nc2N)o1 | 28 µM
COCCNC(=O)/C(C#N)=C/c1ccc(OCc2ccc(F)cc2)cc1 | 11.3 µM
O=C(Nc1ccccc1)C1C(c2ccccc2)C1(Cl)Cl (configuration not stated) | 20.6 µM
COc1ccc(OC)c(-c2csc(NC(=O)Cc3ccc(F)cc3)n2)c1 | 27.7 µM
